Data: ChEMBL document CHEMBL1126844, “Hydroxylated 2-(5'-salicyl)naphthalenes as protein-tyrosine kinase inhibitors” (J Med Chem, 1993)

What follows are compounds tested against Tyrosine-protein kinase Lck (Homo sapiens, UniProt P06239) (assay: Inhibition of protein-tyrosine kinase p56lck).
Sequence of Tyrosine-protein kinase Lck (P06239 whole entry): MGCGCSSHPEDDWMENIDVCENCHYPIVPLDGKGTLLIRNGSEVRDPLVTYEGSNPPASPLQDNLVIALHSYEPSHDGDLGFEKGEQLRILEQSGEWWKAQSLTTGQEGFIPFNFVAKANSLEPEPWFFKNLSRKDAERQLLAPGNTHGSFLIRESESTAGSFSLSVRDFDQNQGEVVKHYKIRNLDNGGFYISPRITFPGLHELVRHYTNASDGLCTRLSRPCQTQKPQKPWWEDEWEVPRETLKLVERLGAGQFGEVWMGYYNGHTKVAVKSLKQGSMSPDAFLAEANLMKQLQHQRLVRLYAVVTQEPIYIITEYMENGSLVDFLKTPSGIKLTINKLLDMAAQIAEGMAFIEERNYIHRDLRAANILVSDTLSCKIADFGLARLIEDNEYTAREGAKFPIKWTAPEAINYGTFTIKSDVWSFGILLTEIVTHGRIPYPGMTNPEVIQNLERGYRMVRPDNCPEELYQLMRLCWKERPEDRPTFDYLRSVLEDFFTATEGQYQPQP

IC50	SMILES
42 µM	O=C(O)c1cc(-c2ccc3c(O)c(O)ccc3c2)ccc1O
65 µM	O=C(O)c1cc(-c2ccc3c(O)ccc(O)c3c2)ccc1O
150 µM	O=C(O)c1cc(-c2ccc3cc(O)c(O)cc3c2)ccc1O
> 200 µM	O=C(O)c1cc(-c2ccc3ccccc3c2)ccc1O
